Assay results reported in US4393178A, “Fast crystallizing polyester compositions” (priority 1979, dated 1983).
Where two headings read alike, the source gives them in different places. Values belong to the molecule of their own block, whether it stands above or below them.

Experiments:
[1] = Half-crystallisation time (t1/2), isothermal DSC; format: physicochemical
Experimental: A DSC 2 Perkin Elmer scanning calorimeter was used.
10 mg of the sample of polymer material are placed in a capsule and introduced into the apparatus, wherein the sample is quickly heated to a temperature of 290° C. at which it is maintained during 1 minute.
The molten polymer material is then very quickly cooled by means of liquid air (at a rate of 320° C. per minute) until the crystallisation temperature is reached.
The crystallisation isotherm is registered on a temperature-time graph and the peak appearing on the registered isotherm is taken as the half-crystallisation time (t1/2).

[2] = Degradation constant K (melt degradation performance); format: physicochemical; parameters: unit not given here; details: 1% salt in PET, 2-roll mill 270 °C 5 min; molten state 290 °C
Experimental: The melt degradation performance is a measure of the extent of degradation under molten conditions. A convenient method of quantifying the performance is by measuring the "K value". A method for determining this value in the molten state using an Instron Capillary rheometer is given in a paper by J. Devaux et al in Makromol.
This method is carried out on samples prepared by reacting the salt with the polyester on a 2 roll-mill at a temperature above the melting point of the polyester for 5 minutes and then pressing the product obtained into a 2 mm thick sheet using the same temperature for 3 minutes before cooling to room temperature. The method is described for polyethylene terephthalate but can be readily adapted for other polyesters.
For polyethylene terephthalate the K value in the presence of salt should be less than 60.

[3] = Crystallisation peak temperature on heating (Tn), DSC; format: physicochemical; details: for Tn (16° C./min): 1% salt deposited from solution on PET, pressed 280 °C 1 minute, heating rate 16 °C/minute; for Tn: 1% salt on PET I.V. 0.73 from solution; for nucleating activity: in words; for Tn(composition)-Tn(polyester): PET I.V. 0.73 + 1% salt, 2-roll mill 300 °C 2 min, 10 °C/minute
Experimental: In one such DSC technique the crystallisation peak temperature difference, Tn(composition)--Tn(polyester) is determined by measuring the crystallisation peak temperatures on heating for the composition in comparison with the polyester of the composition not containing the ionisable salt. The detailed procedure is as follows. Compositions were prepared from the polyester and the additive by mixing on a 2-roll mill at 300° C. for 2 minutes. The sample was taken from the mill and pressed into a film in a compression moulding machine. 10 mg samples of the composition were placed in a capsule, rapidly heated to 290° C. and maintained at that temperature for 1 minute. The capsule was then dropped into water to quench the polymer and prevent crystallisation. The sample was then placed in a Perkin Elmer DSC 2 machine and heated at a rate of 10° C./minute until reaching a temperature of 290° C. The crystallisation peak temperature observed on this heating cycle is recorded and compared with the value for the polyester not containing the additive.
Samples of polyethylene terephthalate (I.V. =0.73) containing 1% of the salts listed in Table 2 were prepared by compounding at 300° C. on a 2-roll mill for 2 minutes. The samples were evaluated to determine Tn(composition-Tn(polyester), the total number of end groups, the number of carboxylate groups and the number of hydroxyl and carboxyl groups.
The salts listed in Table 3 were deposited from solution on the surface of polyethylene terephthalate chip to give a concentration of 1% by weight of salt. The product was dried under vcuum at 96° C. for 3 hours. The compositions were pressed into film using a temperature of 280° C. for 1 minute. The DSC measurements were made after quenching from the melt to prevent crystallisation and using a heating rate of 16° C./minute.
1% by weight of the sodium salt of saccharin was deposited on the surface of granules of a polyethylene terephthalate homopolymer of I.V. =0.73 by evaporating an aqueous solution of the salt from the granules by drying at 96° C. under vacuum for 3 hours. The granules obtained were compression moulded into film by pressing at 280° C. for 60 second. The film was used for measurements of Tn at a heating rate of 16° C./minute.
The effect of the salts listed in Table 4 was determined by taking granules of a polymer of poly(ethylene terephthalate) homopolymer having an intrinsic viscosity of 0.73 and evaporating a solution of the salt in methanol or water from the surface of the granules by drying at 96° C. under vacuum for 3 hours. The proportions of polymer and solution used were such as to give a concentration of 1% of salt by weight of the final dry composition. The granules obtained were compression-moulded into film at 280° C. for various periods of time. The film was used for measurement of Tn as hereinbefore described.
Two samples of polyethylene terephthalate chip (I.V. =0.73) were coated from solution with 1% of the sodium salt of o-hydroxybenzoic acid and the disodium salt of the same acid respectively. After drying for 3 hours in a vacuum oven at 95° C. films were prepared by pressing the products for 1 minute at 280° C.

End group determination = format: physicochemical; details: PET I.V. 0.73 + 1% salt, 2-roll mill 300 °C 2 min
Experimental: The numbers of hydroxyl and carboxyl groups were also determined according to the procedure given in this paper.
[…] The samples were evaluated to determine Tn(composition-Tn(polyester), the total number of end groups, the number of carboxylate groups and the number of hydroxyl and carboxyl groups.

[4] = Solubility parameter δ of the acid
[5] = ΔT = Tc(cooling) - Tn(heating), DSC; format: physicochemical; details: 1% salt in PET, 2-roll mill 270 °C 5 min; 10 °C/minute
Experimental: An alternative method for assessing the effectiveness of nucleation of an additive is to compare the difference between the value of the crystallisation peak on cooling (Tc) with that on heating (Tn) for a composition containing an ionisable salt. The value obtained from this comparison, Tc(cooling) -Tn(heating) is termed ΔT. […] Samples of polyester together with 1% of the salt under test were mixed in a 2-roll mill at 270° C. for 5 minutes. The sample produced was pressed into 2 mm thick sheets at 270° C. for 3 minutes and then cooled to room temperature. 10 mg of the sample was placed in a capsule and rapidly heated to 290° C. After maintaining this temperature for 1 minute the capsule was quenched in water. The crystallisation peak temperatures on heating (Tn) and cooling (Tc) were determined using heating and cooling rates of 10° C./minute on a Perkin Elmer DSC 2 machine.

Compound: O=C([O-])Cc1ccccc1.[Na+] [sodium phenylacetate]
t1/2 (sec) 110° C. [1]: 55 s
t1/2 (sec) 120° C. [1]: 30 s
K [2]: less than 15

Compound: COc1ccc2cc(C(=O)[O-])ccc2c1.[Na+] [Sodium 6-methoxy-2-naphthoate]
Tn (16° C./min) [3]: 119 °C

Compound: O=C([O-])c1cccc2cccc(Br)c12.[Na+] [Sodium 8-bromo-1-naphthoate]
Tn (16° C./min) [3]: 124 °C

Compound: COC(=O)c1ccc(C(=O)[O-])cc1.[K+] [Potassium monomethyl terephthalate, reference compound]
Tn ([3]; time in press 30 sec at 280 °C): 138.5 °C
Tn ([3]; time in press 60 sec at 280 °C): 137.5 °C
nucleating activity [3]: only slight nucleating activity

Compound: O=C([O-])c1cc(O)cc(O)c1.[Na+] [sodium 3,5-dihydroxybenzoate]
Tn(composition)-Tn(polyester) [3]: 7 °C
% of carboxylate end group (End group determination): 0%
End Groups Carboxylate (End group determination): 0 moles × 10^-6 g^-1
End Groups Total from solution I.V. (End group determination): 138 moles × 10^-6 g^-1

Compound: CC(C)(C)c1ccc(C(=O)[O-])cc1.[Na+] [sodium para-tert-butylbenzoate, reference compound]
t1/2 (sec) 110° C. [1]: 150 s
t1/2 (sec) 120° C. [1]: 55 s
δ × pKH.sbsb.2O ([4]; product for the acid): 62
ΔT [5]: 92.5 °C
Tn(composition)-Tn(polyester) [3]: 19 °C
K [2]: 109
% of carboxylate end group (End group determination): 2.5%
End Groups --COOH (End group determination): 83 moles × 10^-6 g^-1
End Groups --OH (End group determination): 56 moles × 10^-6 g^-1
End Groups Carboxylate (End group determination): 4 moles × 10^-6 g^-1
End Groups Total from solution I.V. (End group determination): 157 moles × 10^-6 g^-1

Compound: O=C([O-])c1cccc2ccccc12.[Na+]
Tn (16° C./min) [3]: 111 °C

Compound: O=C(O)c1ccccc1 [sodium benzoate, reference compound]
t1/2 (sec) 110° C. [1]: 90 s
t1/2 (sec) 120° C. [1]: 45 s
δ × pKH.sbsb.2O [4]: 55
ΔT [5]: 99 °C
Tn ([3]; time in press 30 sec at 280 °C): 115.5 °C
Tn ([3]; time in press 60 sec at 280 °C): 117 °C
Tn(composition)-Tn(polyester) [3]: 27 °C
K [2]: 88
% of carboxylate end group (End group determination): 9.6%
End Groups --COOH (End group determination): 44 moles × 10^-6 g^-1
End Groups --OH (End group determination): 54 moles × 10^-6 g^-1
End Groups Carboxylate (End group determination): 13 moles × 10^-6 g^-1
End Groups Total from solution I.V. (End group determination): 136 moles × 10^-6 g^-1

t1/2 (sec) 110° C. ([1]; 110 °C, 1% salt in PET, 2-roll mill 270 °C 5 min, after melting 1 minute at 290 °C): 65 s
t1/2 (sec) 120° C. ([1]; 120 °C, 1% salt in PET, 2-roll mill 270 °C 5 min, after melting 1 minute at 290 °C): 45 s
δ × pKH.sbsb.2O ([4]; product for the acid): 30
ΔT [5]: 106 °C
K [2]: 20
Compound: O=C(O)c1ccccc1[N+](=O)[O-] [ortho-nitrobenzoic acid]

Compound: O=C([O-])c1ccc(C(=O)[O-])cc1.[Na+].[Na+] [Disodium terephthalate, reference compound]
Tn ([3]; time in press 30 sec at 280 °C): 141 °C
Tn ([3]; time in press 60 sec at 280 °C): 140 °C
nucleating activity [3]: only slight nucleating activity

Compound: O=C([O-])c1c(O)cccc1O.[Na+] [sodium 2,6-dihydroxybenzoate]
Tn(composition)-Tn(polyester) [3]: 24 °C
% of carboxylate end group (End group determination): 3.9%
End Groups --COOH (End group determination): 55 moles × 10^-6 g^-1
End Groups --OH (End group determination): 69 moles × 10^-6 g^-1
End Groups Carboxylate (End group determination): 5 moles × 10^-6 g^-1
End Groups Total from solution I.V. (End group determination): 127 moles × 10^-6 g^-1
